According to patent US11944685B2, “Preparation method and application of novel injection abiraterone derivative” (TIANJIN HAIRUNJIAHE INNOVATIVE PHARMACEUTICAL RESEARCH …, priority 2021, dated 2024):
One block for each compound: values may come before it.

Key:
[1] = test system: human prostate cancer cells (DU145); conditions: 2.5-160 μM, incubation 48 hours, CCK8; compared with Abiraterone AA
Protocol: (§1) Cell survival rate tested by CCK8 method: after the solution was pipetted from the wells, each well was added with 10 μl of CCK8 reagent and 100 μl of serum-free medium for further culture for 4 hours. An absorbance value of each well at 450 nm was determined using a microplate reader.

[2] = test system: human prostate cancer cells (LNCaP); conditions: 2.5-160 μM, incubation 48 hours, CCK8; compared with Abiraterone AA
Protocol: as §1

[3] = Pharmacokinetic study in rats (plasma, LC-MS/MS); type: in vivo, SD rats
Protocol: Pharmacokinetics experiments of the polyaminopolycarboxylic acid modified abiraterone derivative AA-DTPA prepared in Example 2 in rats includes the following steps:
A total of eight healthy male SD rats weighing 220+/−20 g were randomly divided into 2 groups, with 4 rats in each group; one group was administered with AA-DTPA from tail veins of the rats at a dose of 8 mg/kg in a volume of 0.2 ml/200 g rat; the other group was administrated intragastrically with AA at a dose of 30 mg/kg in a volume of 0.2 ml/200 g rat; blood samples were collected at time points of 5, 15, and 30 minutes, as well as 1, 2, 4, 6, 12, and 24 hours before and after administration for both groups; and at each time point, 0.5 ml of blood was sampled from canthi, and was placed in a heparinized plastic centrifuge tube, centrifugation was performed at 3000 r/min for 10 minutes, and plasma was separated therefrom.
50 μl of rat plasma samples+5 μl of methanol ice (1:1, v/v)+150 μl of precipitant were taken, and fully whirled and shaken for 3 minutes, a mixture was then centrifuged at 4° and 12000 r/min for 10 minutes, and a supernatant was pipetted, and analyzed with sample injection by LC-MS/MS (liquid chromatography-tandem mass spectrometry).

[4] = Organ indexes and body weights of prostate cancer LNCaP tumor-bearing mice; type: in vivo, nude mice; conditions: 28 days; for body weights of the mice: vs normal group
Protocol: A normal group (Normal) was not given any treatment; a model group (NS) received a daily injection of an equal volume of physiological saline; an AA group (150 mg/kg/d p.o.) was administrated intragastrically, once daily; and an AA-DTPA group (35 mg/kg/w i.v.) and an AA-DTPA group (52.5 mg/kg/w i.v.) were administrated from tail veins once weekly.
Diameters of the xenograft tumors of the nude mice were measured with vernier calipers, and the anti-tumor effect of the Abiraterone was dynamically observed.
Two days following the last administration, the mice were sacrificed, and hearts, livers, spleens, lungs, kidneys, and testes were dissected off and weighed, and organ indexes [organ index=organ weight/(body weight−tumor weight), unit: mg/g] were calculated.

[5] = Toxicity study: blood routine, blood biochemistry and tissue pathology of healthy ICR male mice; type: in vivo; conditions: 28 days
Protocol: The influence of the polyaminopolycarboxylic acid modified Abiraterone derivative AA-DTPA prepared in Example 5 on blood routine, blood biochemistry and pathological tissues of ICR healthy male mice following administration for 28 days includes the following steps:
20 ICR mice were selected, and were divided into 4 groups (NS group, positive control group AA 150 mg/kg/d p.o., and experimental groups AA-DTPA 35 mg/kg/w and 52.5 mg/kg/w i.v.), each of which had 5 mice.
The mice were administrated intragastrically once daily, and administrated intravenously, […], and blood was sampled for submission following the treatment for 28 days; all mice were sacrificed by cervical dislocation, hearts, livers, spleens, lungs, kidneys, and testes were dissected and collected, and fixed with 10% formaldehyde; and after being embedded by paraffin, the organs were sectioned, and histopathological examination was performed after HE staining (see FIG. 13 for results from blood routine experiments, FIG. 14 for results from blood biochemistry experiments, and FIG. 15 for results from histopathological experiments).

[6] = test system: human prostate cancer LNCaP derived xenograft tumors; assay: Inhibition of growth of human prostate cancer LNCaP derived xenograft tumors of nude mice; conditions: for tumor inhibition effect compared with the AA group: 28 days; for tumor growth: treatment for 28 days
[7] = intragastric administration 30 mg/kg
[8] = intravenous injection (tail vein) 8 mg/kg
[9] = healthy male ICR mice, 35 and 52.5 mg/kg/w i.v. vs AA 150 mg/kg/d p.o.
[10] = healthy male ICR mice, 35 and 52.5 mg/kg/w i.v.

SMILES: CC12CCC(OC(=O)CN(CCN(CCN(CCN(CC(=O)O)CC(=O)O)CC(=O)O)CC(=O)O)CC(=O)O)CC1=CCC1C2CCC2(C)C(c3cccnc3)=CCC12 (stereo not drawn) [AA-TTHA, triethylenetetramine hexaacetic acid modified Abiraterone derivative]
in vitro anti-tumor effect (DU145), cell survival rate [1]: superior to the in vitro anti-tumor effect of Abiraterone AA | in vitro anti-tumor effect (LNCaP), cell survival rate [2]: superior to the in vitro anti-tumor effect of Abiraterone AA

absorption in vivo [3, 7]: absorbed slowly | peak value of AA concentration in blood plasma [3, 7]: 15.28 ± 1.24 ng/mL | time to peak plasma concentration [3, 7]: 0.5 h | half-life ([3]; male, SD, rat, plasma, po, intragastric administration 30 mg/kg, read-out: half-life period (converted)): 508 min
SMILES: C[C@]12CC[C@H](O)CC1=CC[C@@H]1[C@@H]2CC[C@]2(C)C(c3cccnc3)=CC[C@@H]12 [AA, Abiraterone]
heart indexes ([4]; 150 mg/kg/d p.o.): slight decline | indexes of livers, lungs and kidneys vs model group ([4]; 150 mg/kg/d p.o.): no significant difference | testis indexes ([4]; 150 mg/kg/d p.o., compared with normal group and model group): testicular atrophy and a sharp decrease in testis indexes | histopathology of hearts, spleens, kidneys and testes ([5]; 150 mg/kg/d p.o., HE staining): no abnormal changes | histopathology of livers ([5]; 150 mg/kg/d p.o., HE staining): mild pathological changes | histopathology of lungs ([5]; 150 mg/kg/d p.o., HE staining): mild pathological changes

SMILES: CC12CCC(OC(=O)CN(CCN(CCN(CC(=O)O)CC(=O)O)CC(=O)O)CC(=O)O)CC1=CCC1C2CCC2(C)C(c3cccnc3)=CCC12 (stereo not drawn) [AA-DTPA, diethylenetriaminepentaacetic acid modified Abiraterone derivative]
tumor inhibition effect compared with the AA group ([6]; 35 mg/kg/w i.v. vs AA 150 mg/kg/d p.o.): better tumor inhibition effects | tumor growth ([6]; 35 mg/kg/w i.v.): significantly inhibited | tumor inhibition effect compared with the AA group ([6]; 52.5 mg/kg/w i.v. vs AA 150 mg/kg/d p.o.): better tumor inhibition effects | tumor growth ([6]; 52.5 mg/kg/w i.v.): significantly inhibited | average clearance rate [3, 8]: 0.513 L/h/kg | half-life period [3, 8]: 15.6 min | plasma concentration-time profile [3, 8]: double exponential decay | in vitro anti-tumor effect (DU145), cell survival rate [1]: superior to the in vitro anti-tumor effect of Abiraterone AA | in vitro anti-tumor effect (LNCaP), cell survival rate [2]: superior to the in vitro anti-tumor effect of Abiraterone AA | body weights of the mice ([4]; 35 mg/kg i.v. weekly): equivalent to those of the mice in the normal group | body weights of the mice ([4]; 52.5 mg/kg i.v. weekly): equivalent to those of the mice in the normal group | indexes of hearts, livers, lungs, kidneys and testes vs model group ([4]; AA-DTPA treatment group (35 and 52.5 mg/kg/w i.v.)): No significant difference | organ toxicity compared with AA under the treatment dose ([4]; LNCaP tumor-bearing mice): lower than that of the AA | histopathology of lungs ([5]; 52.5 mg/kg/w i.v., HE staining): mild pathological changes | organ toxicity (histopathology) ([5]; 35 and 52.5 mg/kg/w i.v.): no obvious organ toxicity | histopathology of hearts, spleens, kidneys and testes ([5]; 35 and 52.5 mg/kg/w i.v., HE staining): no abnormal changes | effect on alanine aminotransferase and aspartate aminotransferase compared with AA group [5, 9]: less effect | effect on number of lymphocytes and monocytes compared with AA group [5, 9]: less effect | effect on blood biochemistry [5, 10]: less effect | effect on blood routine [5, 10]: less effect | toxicity compared with AA ([5]; healthy male ICR mice): less toxic than that of the AA
